Measured values taken from patent US8722665B2, “Cinnamido-pyrrolo[2,1-C][1,4]benzodiazepines as potential anticancer agents and process for the preparation thereof” (Council of Scientific & Industrial Research, priority 2008, dated 2014).

Key:
SK-MEL-28 = assay: In vitro cytotoxicity (SRB); type: cell-based, human; conditions: SK-MEL-28 (Melanoma); 48 h continuous drug exposure
Protocol: (§1) The compounds were evaluated for in vitro anticancer activity against sixty human tumour cells derived from nine cancer types (leukemia, non-small-cell lung, colon, CNS, melanoma, ovarian, prostate, and breast cancer) as shown in Table 1a. For each compound, dose response curves for each cell line were measured at a minimum of five concentrations at 10 fold dilutions. A protocol of 48 h continuous drug exposure was used and a sulforhodamine B (SRB) protein assay was used to estimate cell viability or growth. The concentration causing 50% cell growth inhibition (GI50), total cell growth inhibition (TGI 0% growth) and 50% cell death (LC50, −50% growth) compared with the control was calculated. The Log10 GI50 (concentration in mol/L causing 50% growth inhibition) values for Cinnamido-pyrrolo[2,1-c][1,4]benzodiazepine (8b) is listed in Table 2.

CAKI-1 = assay: In vitro cytotoxicity (SRB); type: cell-based, human; conditions: CAKI-1 (Renal); 48 h continuous drug exposure
Protocol: as §1

OVCAR-5 = assay: In vitro cytotoxicity (SRB); type: cell-based, human; conditions: OVCAR-5 (Ovarian); 48 h continuous drug exposure
Protocol: as §1

SF-539 = assay: In vitro cytotoxicity (SRB); type: cell-based, human; conditions: SF-539 (CNS); 48 h continuous drug exposure
Protocol: as §1

RPMI-8226 = assay: In vitro cytotoxicity (SRB); type: cell-based, human; conditions: RPMI-8226 (Leukemia); 48 h continuous drug exposure
Protocol: as §1

COLO 205 = assay: In vitro cytotoxicity (SRB); type: cell-based, human; conditions: COLO 205 (Colon); 48 h continuous drug exposure
Protocol: as §1

PC-3 = assay: In vitro cytotoxicity (SRB); type: cell-based, human; conditions: PC-3 (Prostate); 48 h continuous drug exposure
Protocol: as §1

HL-60(TB) = assay: In vitro cytotoxicity (SRB); type: cell-based, human; conditions: HL-60(TB) (Leukemia); 48 h continuous drug exposure
Protocol: as §1

NCI-H460 = assay: In vitro cytotoxicity (SRB); type: cell-based, human; conditions: NCI-H460 (Non-small cell lung); 48 h continuous drug exposure
Protocol: as §1

LOX IMVI = assay: In vitro cytotoxicity (SRB); type: cell-based, human; conditions: LOX IMVI (Melanoma); 48 h continuous drug exposure
Protocol: as §1

NCI/ADR-RES = assay: In vitro cytotoxicity (SRB); type: cell-based, human; conditions: NCI/ADR-RES (Breast); 48 h continuous drug exposure
Protocol: as §1

SK-OV-3 = assay: In vitro cytotoxicity (SRB); type: cell-based, human; conditions: SK-OV-3 (Ovarian); 48 h continuous drug exposure
Protocol: as §1

OVCAR-8 = assay: In vitro cytotoxicity (SRB); type: cell-based, human; conditions: OVCAR-8 (Ovarian); 48 h continuous drug exposure
Protocol: as §1

CCRF-CEM = assay: In vitro cytotoxicity (SRB); type: cell-based, human; conditions: CCRF-CEM (Leukemia); 48 h continuous drug exposure
Protocol: as §1

MOLT-4 = assay: In vitro cytotoxicity (SRB); type: cell-based, human; conditions: MOLT-4 (Leukemia); 48 h continuous drug exposure
Protocol: as §1

TK-10 = assay: In vitro cytotoxicity (SRB); type: cell-based, human; conditions: TK-10 (Renal); 48 h continuous drug exposure
Protocol: as §1

MDA-MB-468 = assay: In vitro cytotoxicity (SRB); type: cell-based, human; conditions: MDA-MB-468 (Breast); 48 h continuous drug exposure
Protocol: as §1

SK-MEL-5 = assay: In vitro cytotoxicity (SRB); type: cell-based, human; conditions: SK-MEL-5 (Melanoma); 48 h continuous drug exposure
Protocol: as §1

SNB-19 = assay: In vitro cytotoxicity (SRB); type: cell-based, human; conditions: SNB-19 (CNS); 48 h continuous drug exposure
Protocol: as §1

NCI-H23 = assay: In vitro cytotoxicity (SRB); type: cell-based, human; conditions: NCI-H23 (Non-small cell lung); 48 h continuous drug exposure
Protocol: as §1

RXF 393 = assay: In vitro cytotoxicity (SRB); type: cell-based, human; conditions: RXF 393 (Renal); 48 h continuous drug exposure
Protocol: as §1

KM12 = assay: In vitro cytotoxicity (SRB); type: cell-based, human; conditions: KM12 (Colon); 48 h continuous drug exposure
Protocol: as §1

ACHN = assay: In vitro cytotoxicity (SRB); type: cell-based, human; conditions: ACHN (Renal); 48 h continuous drug exposure
Protocol: as §1

[1] = system: sixty human tumour cell lines; assay: In vitro cytotoxicity (SRB), mean graph midpoints; type: cell-based; conditions: 48 h exposure
Protocol: as §1

[2] = system: duplex-form calf thymus DNA (CT-DNA); assay: Thermal denaturation studies with calf thymus DNA; type: binding; conditions: [PBD]:[DNA] molar ratio 1:5, CT-DNA 100 μM, ligand 20 μM, pH 7.00
Protocol: Compounds have been subjected to thermal denaturation studies with duplex-form calf thymus DNA (CT-DNA) using an modification of a reported procedure (Newman, M. S. Carcinog-compr. Surv. 1976, 1, 203; (b) Hecht, S. S.; Loy, M.; Hoffman, Carcinog-compr. Surv. 1976, 1, 325). Working solutions in aqueous buffer (10 mM NaH2PO4/Na2HPO4, 1 mM Na2EDTA, pH 7.00+0.01) containing CT-DNA (100 μm in phosphate) and the PBD (20 μm) have been prepared by addition of concentrated PBD solutions in DMSO to obtain a fixed [PBD]/[DNA] molar ratio of 1:5. The DNA-PBD solutions have been incubated at 37° C. for 0 and 18 h prior to analysis. Samples have been monitored at 260 nm using a Beckman DU-800 spectrophotometer fitted with high performance temperature controller, and heated at 1° C. min^−1 in the 40-110° C. range. DNA helix→coil transition temperatures (Tm) have been obtained from the maxima in the d(A260)/dT derivative plots. Drug-induced alterations in DNA melting behavior are given by: ΔTm=Tm(DNA+PBD)−Tm(DNA alone), where the Tm value for the PBD-free CT-DNA is 69.1±0.01.
The DNA binding activity for these Cinnamido-pyrrolo[2,1-c][1,4]benzodiazepines have been examined by thermal denaturation studies using calf thymus (CT) DNA. […] The data for the compounds 8b&d, 11b&d, 14b&d and 17b&d is included in Table 1 for comparison.

COc1cc(/C=C/C(=O)N2CCN(C(=O)c3cc(OC)c(OC)c(OC)c3)CC2)ccc1OCCCOc1cc2c(cc1OC)C(=O)N1CCC[C@H]1C=N2 [8b, 7-methoxy-8-{3-(2-methoxy-4-(E)-3-oxo-3-[4-(3,4,5-trimethoxybenzoyl)piperazino]-1-propenylphenoxy)propoxy}-(11aS)-2,3,5,11^a-tetrahydro-5H-pyrrolo[2,1-c][1,4]benzo-diazepine-5-one]
GI50 (SK-MEL-28): 210 nM | GI50 (CAKI-1): 1120 nM | GI50 (OVCAR-5): 290 nM | GI50 (SF-539): 250 nM | GI50 (RPMI-8226): 650 nM | GI50 (COLO 205): 180 nM | GI50 (PC-3): 340 nM | GI50 (HL-60(TB)): 250 nM | GI50 (NCI-H460): 330 nM | GI50 (LOX IMVI): 180 nM | GI50 (NCI/ADR-RES): 1470 nM | GI50 (SK-OV-3): 490 nM | GI50 (OVCAR-8): 260 nM | GI50 (CCRF-CEM): 250 nM | GI50 (MOLT-4): 200 nM | GI50 (TK-10): 690 nM | GI50 (MDA-MB-468): 140 nM | GI50 (SK-MEL-5): 190 nM | GI50 (SNB-19): 330 nM | GI50 (NCI-H23): 320 nM | GI50 (RXF 393): 200 nM | GI50 (KM12): 280 nM | GI50 (ACHN): 2750 nM | Log10 GI50 mean graph midpoint (MG_MID) [1]: −6.48 mol/L | Log10 LC50 mean graph midpoint (MG_MID) [1]: −4.5 | Log10 TGI mean graph midpoint (MG_MID) [1]: −5.59 | (ΔTm ° C.) after incubation at 37° C. for 0 h ([2]; 0 h incubation at 37° C.): 1.2 °C | (ΔTm ° C.) after incubation at 37° C. for 18 h ([2]; 18 h incubation at 37° C.): 2.1 °C
